Results reported in a melting point compilation (Tetko et al.; mined from patent text by program, amines drawn as free bases though some values may be those of a salt).

Row | melting point [°C] | SMILES
1 | 131 | Cc1cc([N+](=O)[O-])c(NCCO)c([N+](=O)[O-])c1
2 | 269 to 272 | Nc1nc(-n2cc(C(=O)O)c(=O)c3cc(F)c(N4CC(O)C4)c(F)c32)c(F)cc1F
3 | 130 to 134 | COc1ccc2oc(C(=O)c3cccnc3F)cc2c1
4 | 138 | CC1(C)C(C(=O)O)C1C(C(Cl)(Br)C(F)(F)F)S(C)(=O)=O (centres undefined)
5 | 208 to 209 | CC(=O)N1CCC(Oc2ccc(N3CCOCC3)cc2)CC1
6 | 205 to 207 | CN1CCN(c2cccc3ccc(Nc4ncccc4NC(=O)c4ccccc4)cc23)CC1
7 | 226 | CC(=O)C(C)N1C(=O)N(c2ccc(N3CCN(c4ccc(O)cc4)CC3)cc2)C(=O)C1(C)C (centres undefined)
8 | 79 to 80 | COC(=O)CCCc1ccc(S(=O)(=O)Nc2ccccc2)cn1
9 | 360 | NS(=O)(=O)c1cc2[nH]c(-c3nc4cc(Cl)c(S(N)(=O)=O)cc4[nH]3)nc2cc1Cl
10 | 185 to 186 | COC(=O)Cc1ccc(O)c(C23CC4CC(CC(C4)C2)C3)c1
11 | 128 to 130 | COC(=O)c1cc(Cl)cc2c1OC(C)C(=O)N2C (centres undefined)
12 | 96 to 98 | O=C(O)c1ccccc1C(=O)OC1CCN(c2cc(-c3ccccc3)nc(-c3ccccc3)n2)CC1
13 | 115 to 116 | CCOC(=O)C(=CNC1CC1)C(=O)c1c(F)c(C)c(F)c(F)c1[N+](=O)[O-]
14 | 125 to 126 | Cn1cccc1S(=O)(=O)NC(C)(C)C
15 | 82 | CC(C(=O)NCCCC(F)(F)F)(c1ccccc1)c1ccccc1
16 | 63 to 64 | CC(C)Oc1ccc(CO)c(Oc2ncc(C(F)(F)F)cc2Cl)c1
17 | 227 | O=C(CCCCC(=O)NC1CCc2ccccc21)NC1CCc2ccccc21 (centres undefined)
18 | 131 to 133 | COC1(c2cc(F)cc(Sc3ccc(C(=NO)C(F)(F)F)cc3)c2)CCOCC1
19 | 189 to 190 | OCc1c(-c2ccc(F)cc2)nn2ccc3c(c12)CCO3

Row | melting point [°C] | SMILES
20 | 238 to 240 | COc1cc(C2C3=C(COC3=O)Nc3ccc4cn[nH]c4c32)ccc1O (centres undefined)
21 | 109 to 111 | N#CCc1c[nH]c2ccc(CCS(N)(=O)=O)cc12
22 | 97 to 98 | COc1cc(OCCOc2ccc3ccccc3c2)cc(OC)c1C(C)=O
23 | 157 to 158 | Cc1ccn(-c2ccc(S(C)(=O)=O)cc2)c1-c1ccc(F)cc1
24 | 72 to 75 | CC(=O)C(=O)N[C@H](CO[N+](=O)[O-])Cc1ccccc1
25 | 78 to 79 | CCc1ccc2c(O)cnn2c1
26 | 212 to 213 | Cc1ncc2cc(-c3c(Cl)cccc3Cl)c(NS(C)(=O)=O)nc2n1
27 | 99 | CC[C@@]1(c2cc(F)cc(OCc3ccc4c(ccc(=O)n4C)c3)c2)CCO[C@H](C)C1 (racemic)
28 | 115 to 118 | Cc1ncc(NC(=O)OCc2ccccc2)c(=O)n1CC(=O)NC(Cc1ccccc1)C(=O)C(F)(F)F (centres undefined)
29 | 280 to 282 | Cc1ncnc2nc(N)c(-c3c(Cl)cccc3Cl)cc12
30 | 172 to 174 | COc1cccc(OC)c1C(=O)NC(=O)Nc1ccc(Sc2ccc(Cl)cc2)nc1
31 | 189 to 190 | CN(C(=O)c1ccc(Cn2ccc3ncnc-3c2)o1)C1CCCCC1
32 | 194 to 195 | CS(=O)(=O)c1ccc(-c2sc(-c3cccs3)nc2-c2ccc(F)cc2)cc1
33 | 142 to 144 | CN1CSC(=Cc2cc(C(C)(C)C)c(O)c(C(C)(C)C)c2)C1=O
34 | 221 to 222 | CNc1nccc(-c2c(-c3ccc(F)cc3)ncn2C2CC(C)(C)NC(C)(C)C2)n1
35 | 176 to 177 | COc1cccc(Cn2cc3c(-c4cccc(C(=O)NCCC#N)c4)cccc3n2)c1
36 | 196 to 197 | CCOC(=O)C1=C(C)Nc2cncn2C1c1cccc([N+](=O)[O-])c1 (centres undefined)
37 | 110 to 116 | O=S(=O)(C=CC(=Nc1ccccc1)Oc1ccccc1)c1ccccc1

The remaining lines, values behind:

Row | SMILES | melting point [°C]
38 | CCc1cccc(N2C(c3ccc(Cl)cc3)=NS(=O)(=O)c3cnccc32)c1 | 227 to 229
39 | C1c2c(-c3nn[nH]n3)n[nH]c2[C@@H]2C[C@H]12 | 231
40 | COc1cccc(CC(=O)O)c1OCCCc1cn(-c2ncc(C#N)cn2)nc1C(C)C | 167 to 168
41 | O=Cc1ccc(-c2nnc(-c3ccccc3[N+](=O)[O-])o2)cc1 | 189 to 190
42 | CC(C)Cn1c(CNC(=O)OC(C)(C)C)c(OCCCC(F)(F)F)c2cc(O)ccc2c1=O | 173 to 174
43 | COc1ccc(NS(=O)(=O)c2ccc([N+](=O)[O-])cc2)cc1 | 173 to 175
44 | FC(F)(F)Sc1ccc(C(F)(F)F)cc1 | 30 to 31
45 | CCCn1c(=O)c2[nH]c(C3CCOCC3)nc2n(CCC)c1=O | 171 to 172
46 | CCOC(=O)c1nnc(C(=O)OCC)c2c1[nH]c1ccccc12 | 151 to 152
47 | CC(=O)Nc1ccc(NC(=O)CN2CCC(Cc3ccc(F)cc3)CC2)cc1 | 173 to 180
48 | CCCCCCCNC(=O)N(CCC)c1cccc(-c2ccc(CCC(=O)O)cc2)c1 | 79
49 | COC(=O)c1ccc2cc(CCc3cc4c(C(=O)OC)cccc4o3)oc2c1 | 175 to 177
50 | CCOC(=O)C(C#N)=CNc1ncccc1CC | 122 to 125
51 | CCCCc1nn(-c2cc(NC(=O)CCC)ccc2Cl)c(=O)n1Cc1ccc(-c2ccccc2S(=O)(=O)NC(=O)c2ccccc2Cl)cc1 | > 130
52 | CCn1nnnc1Cc1ccc([N+](=O)[O-])cc1 | 104 to 105
53 | COCCOc1ccc(/C=C/C(=O)NS(=O)(=O)c2cccnc2)c(Oc2ncc(C(F)(F)F)cc2Cl)c1 | 165 to 167
54 | COc1c(C)cnc(Cn2c(SC/C=C(\C)CCC=C(C)C)nc3ccccc32)c1C | 76 to 80
55 | CCOC(=O)C(C)(C#N)c1cccc2c(-c3ccc(Cl)cc3)nccc12 (centres undefined) | 92 to 93.5
56 | COC(=O)c1coc(-c2ncn3c2CN(C)C(=O)c2ccccc2-3)n1 | 264 to 265
57 | S=c1nc2c(-c3ccccc3)cccn2c(=S)n1-c1ncccc1-c1ccccc1 | 90 to 92
58 | CCCc1c(C#CCCCCOc2ccccc2CCC(=O)O)ccc2c1OCCC2=O | 88 to 92

Row | SMILES | melting point [°C]
59 | O=C(O)[C@H](Cc1ccccc1)C[C@@H](Cc1ccccc1)C(=O)O | 150 to 152
60 | O=C(CCl)N(c1ccccc1)c1cccc(F)c1 | 115 to 117
61 | CCOC1(c2nc3ccccc3s2)C=CC(=O)C=C1 | 59
62 | N#Cc1ccc2[nH]c3c(ccc4cc[nH]c43)c2c1 | > 250
63 | CCN(C1CC(C)(C)Oc2ccc(OCCCCC(=O)NCCO)cc21)S(C)(=O)=O (centres undefined) | 88 to 90
64 | CCOc1cccnc1CO | 74.5 to 76
65 | COc1ccc2c(cc3n2Cc2ccccc2-3)n1 | 192 to 193
66 | CSc1c(C2=C(c3cn(C)c4ccccc34)C(=O)NC2=O)c2ccccc2n1C | 281 to 283
67 | CCCCCCCCCCCCSC1c2cccc(O)c2C(=O)c2c(O)cccc21 | 76
68 | CCc1cc2cc([N+](=O)[O-])ccc2o1 | 86
69 | CCOc1cc2c(cc1OCC)C1CC(=O)C(CC)CN1CC2 (centres undefined) | 115 to 118
70 | CCCCOC(=O)[C@H]1CN(c2ccc(C3CCSCC3)cc2)C(=O)O1 | 94 to 96
71 | CCCn1nnn(-c2cc(OC3CCCO3)c(Cl)cc2Cl)c1=O (centres undefined) | 89 to 90
72 | COC(C)C(=O)Nc1ccc(C2=NNC(=O)CC2C)cc1 (centres undefined) | 193 to 194
73 | Oc1cc(CCl)ncn1 | 164 to 166
74 | Clc1ccc(C2=CCN(Cc3n[nH]c4c(Cl)cccc34)CC2)cc1 | 171 to 173
75 | O=C(O)C(=O)c1cn(Cc2ccc(F)cc2)c2ccc(-c3ccc(OC(F)(F)F)cc3)cc12 | 158 to 159
76 | COC(=O)c1ccc2c(C(=O)c3ccccc3)c(C(=O)OC)ccc2c1 | 84
77 | Cc1nc(C)c(Cl)c(NCc2nccc(SCCCSCc3ccncc3)c2C)n1 | 124 to 125
78 | Nc1cc(C(=O)OC2CCCC2)c(Cl)cc1F | 61 to 62
79 | Cc1ccc(C(O)CCN(C)C)s1 (centres undefined) | 66.5 to 68

Row | SMILES | melting point [°C]
80 | O=C(O)CCCc1cc2nc(Cl)ccc2n1S(=O)(=O)c1ccc2oncc2c1 | 226
81 | Cc1cc(NC(=O)C(CSC(=O)CC(C)C)Cc2ccccc2)cc(C(=O)O)c1 (centres undefined) | 153 to 157
82 | COc1ccc(CCOC(c2ccccc2)(c2ccccc2)C(O)C(=O)O)cc1OC (centres undefined) | 133 to 135
83 | Cc1oc(-c2cccs2)nc1COc1ccc(CCCn2ccnc2)cc1 | 102 to 103
84 | CC(C)(C)OC(=O)C=Cc1ccc(C(=O)C(=C(F)F)c2ccccc2)cc1 | 88 to 94
85 | CC(=O)Nc1ccc(N=C=S)cc1O | 68 to 70
86 | CCCn1c(=O)sc2cc(F)c(-n3c(=O)cc(CC)[nH]c3=O)cc21 | > 250
87 | O=S1(=O)N=C(NC2CCCCC2)Nc2cc(Cl)sc21 | 282 to 284
88 | Cc1cc(Cl)ccc1N=CN(C)SN(C1CCCCC1)C1CCCCC1 | 110 to 111
89 | O=C(Nc1cc(C(F)(F)F)cc2c(Cl)ccnc12)c1c(Cl)cccc1Cl | 150 to 157
90 | CC(C)(Cc1ccc(Cl)cc1Cl)C(=O)Cn1cncn1 | 85
91 | CCOc1ccc(Nc2nc(NC(CO)CO)nc(N(C)C3CCN(C)CC3)n2)cc1Cl | 84
92 | O=C(Nc1c(C(F)(F)F)n[nH]c1-c1ccccc1)c1ccccc1 | 229 to 230
93 | CC1(C)NC(=O)N(c2ccc(F)c(C(F)(F)F)c2)C1=O | 111 to 114
94 | NC(=O)c1cccc(-c2cccc3cc(Cc4cc(F)cc(C(F)(F)F)c4)sc23)c1 | 147 to 148
95 | COc1ccc([C@H]2Cc3c(cccc3[N+](=O)[O-])NC(=O)[C@H]2O)cc1 (relative stereo) | 198 to 200
96 | CCOC(=O)C=Cc1cccc(OCc2nc(-c3ccccc3)oc2C)c1 | 91 to 92
97 | COc1ccc(F)cc1C(C)(C)CC(O)(Cn1[nH]c(=O)c2ccccc21)C(F)(F)F (centres undefined) | 141 to 144
98 | CC(=O)SCCC1(C)C(=O)N2CCCC(C(=O)O)N2C1=O (centres undefined) | 142 to 143
99 | CCOC(=O)C1Cc2cc(OC)c(OC)cc2N1C(=O)CCSC(C)=O (centres undefined) | 104 to 106
